Results taken from patent US10342866B2, “Compositions and methods for immunotherapies comprising small molecule integrin receptor-ligand agonist adjuvants” (7 Hills Interests LLC, priority 2015, dated 2019).

Key:
[1] = target: T1, αLβ2 (LFA-1) (Homo sapiens, UniProt P05107+P20701); test: Static cell adhesion assay, αLβ2-mediated adhesion to ICAM-1; assay type: cell-based; conditions: Jurkat (a4-) or HSB cells on sub-optimal ICAM-1 coating; PBS, 1 mM MgCl2, 50% FBS; read-out: Activity (EC50) in enhancing adhesion mediated by αLβ2 (LFA-1)
T1 construct: the cells expressed the appropriate integrin receptor either endogenously (Jurkat/α4β1, K562/α5β1, Jurkat (a4-)/αLβ2, HSB/αLβ2); endogenous in cells; host or cells: Jurkat (α4-) or HSB
Description: (§1) For all assays described, C4 was dissolved in DMSO to make a 1 mM stock solution, and dilutions were made in assay buffer or media to yield the desired final working concentrations in 1% DMSO (vehicle). Human VCAM-1, MAdCAM-1 Fc chimera, ICAM-1, and SDF-1α were purchased from R&D Systems (Minneapolis, Minn.). Human serum fibronectin was purchased from Sigma-Aldrich (St. Louis, Mo.). The cell lines NK-92, Jurkat, K562, and HSB were obtained from American Type Culture Collection (Manassas, Va.) and were maintained in recommended culture media. The mutant Jurkat cell line not expressing α4 integrin (Jurkat [a4-]) was a gift from Dr. David Rose, University of California San Diego, La Jolla, Calif.
(§2) Ligands (VCAM-1, MAdCAM-1, fibronectin, or ICAM-1) in 50 μL of 50 mM Tris-HCl (pH 7.4), 150 mM NaCl, (TBS) were added to wells of a 96-well plate and allowed to coat overnight at 4° C. In order to maximize the window to evaluate agonist activity, a sub-optimal coating concentration of ligand was used. This ligand concentration corresponded approximately to that which would yield ≤5% adhesion as determined by dose-response curves of ligand binding to the appropriate cell type. All assays were performed as previously described. Briefly, 2×10^6 cells were labeled for 30 minutes with calcein-AM (Molecular Probes), washed, resuspended in binding buffer, and added to ligand-coated plates (2×10^5 cells/well) that had been blocked with 2% BSA. The binding buffer was PBS with 1 mM MgCl2 and 50% FBS (VCAM-1 and ICAM-1 assays) or TBS with 1 mM MnCl2 and 50% FBS (MAdCAM-1 and fibronectin assays). After a 30-minute incubation at 37° C., the plates were washed 3 times with the respective binding buffer (except without the serum), the adherent cells were lysed, and fluorescence was measured on a Tecan Safire^2 plate reader. Standard curves were run for each assay to convert fluorescence units to cell number. For each assay, the cells expressed the appropriate integrin receptor either endogenously (Jurkat/α4β1, K562/α5β1, Jurkat (a4-)/αLβ2, HSB/αLβ2) or in recombinant form (K562/α4β7). Generation of the recombinant K562 cell line has been described.

[2] = target: T2, α4β1 (VLA-4) (Homo sapiens, UniProt P05556+P13612); test: Static cell adhesion assay, α4β1-mediated adhesion to VCAM-1; assay type: cell-based; conditions: Jurkat cells on sub-optimal VCAM-1 coating; PBS, 1 mM MgCl2, 50% FBS; read-out: Activity (EC50) in enhancing adhesion mediated by α4β1 (VLA-4)
T2 construct: the cells expressed the appropriate integrin receptor either endogenously (Jurkat/α4β1, K562/α5β1, Jurkat (a4-)/αLβ2, HSB/αLβ2); host or cells: Jurkat
Description: as §1, §2

[3] = tested on: B16-BL6 melanoma; test: Checkpoint blockade B16-BL6 melanoma model; assay type: in vivo, C57BL/6 mice; conditions: C4 intratumorally 1 mg/kg twice weekly for 30 days from day 11
Description: C4 was tested in a B16-BL6 melanoma model to determine potential effects on the current checkpoint blockade therapy anti-CTLA-4. Briefly, thirty C57BL/6 were randomized into 3 groups (n=10). C4 was added to a regimen of GVAX®/anti-CTLA-4. Historically, these treatment regimens result in at best, a 20% tumor free survival. On day 0, B16-BL6 cells (2.5×10^4) were injected subcutaneously. GVAX®/anti-CTLA-4 (clone 9H10), or IgG controls, were administered on days 3, 6, and 9. On day 11, C4 treatment was initiated intratumorally twice weekly (1 mg/kg) for 30 days. Vehicle control was added to the IgG group.
The B16-BL6 therapeutic melanoma model is well described. Briefly, B16-BL6 cells (>90% viability) were be resuspended at 2.5×10^5 cells/ml in HBSS (4° C.). At day 0 (d0), C57BL/6 mice (4-6 wk old, female) were inoculated (subcutaneous, flank) with 2.5×10^4 cells (100 μL). At d3, appropriate groups received B16-GM-CSF vaccine (GVAX®). GVAX® preparation followed established procedures. Log-phase growth B16-GM-CSF cells were harvested as described above for B16-BL6 cells, but resuspended at 1×10^7 cells in HBSS (4° C.). Cells were irradiated (5000 rad) and injected into contralateral flanks (100 μL, […]). Also at d3, all animals received anti-CTLA-4 (mAb 9H10, BioXcell, 200 μg/animal, twice weekly). […] Animals were monitored daily for distress and survival was assessed twice daily. […]

[4] = tested on: K562 tumor target cells; test: NK cytotoxicity testing (NK cell cytolysis of tumor target cells); assay type: cell-based, human
Description: FIG. 1 depicts C4 enhancement of natural killer cell cytolysis of tumor target cells. Freshly isolated CD56+ natural killer cells were isolated from the peripheral blood of a healthy volunteer. Cells were either incubated with vehicle control (DMSO), or indicated concentrations of C4 for 4 h in the presence of tumor target cells (the erythroleukemic cell line K562). Data is presented as a percent increase in tumor cell killing.
FIG. 2 depicts the natural killer cell line NK-92, which was used at different effector to target ratios in the presence or absence of C4 (100 μM). Specific lysis of K562 cells is shown. All data are from triplicate determinations, and graphed as the mean+SD. […]
Human NK cells were purified from leukoreduction filters obtained from healthy volunteers using a CD56+ magnetic bead based enrichment column from Multenyi Biotech (as per manufacturer's instructions). Purified cells were routinely >90% CD56+ positive as measured by flow cytometry. […] After a 4 h incubation at 37° C., 5% CO2, culture supernatants were removed and liberated TDA (2,2′:6′,2″-terpyridine-6,6″-dicarboxylic acid) was detected by addition of DELFIA solution to form EuTDA, and fluorescence was measured on a Tecan Safire 2 multimodal plate reader. […] Results are expressed as the percent specific lysis, calculated as [(experimental signal−spontaneous release)/(total signal−spontaneous release).

[5] = tested on: Jurkat cells; test: SDF-1α mediated migration assay across VCAM-1 coated membranes; assay type: cell-based; conditions: 4-hour incubation; *p<0.05 (FIG. 3A&B)
Description: (§3) FIGS. 3A&B depicts activity of C4 in enhancing SDF-1α mediated migration of Jurkat T cell, an exemplary activated T-cell, across membranes coated with either VCAM-1 or ICAM-1 (*p<0.05).
(§4) Migration assays were performed in […] pore size Transwells (24 well, Costar, Cambridge, Mass.). The upper chambers were pre-coated with […] VCAM-1 or 1 μg/mL ICAM-1 in […] TBS overnight at 4° C. and were then blocked with 2% BSA for 1 hour at room temperature. After washing with migration medium (RPMI-1640 supplemented with 1% FBS, 100 units/mL penicillin and 100 μg/mL streptomycin), upper chambers were loaded with 2×10^5 cells Jurkat cells (VCAM-1 assays) or Jurkat (a4-) cells (ICAM-1 assays) in 160 μL of migration medium. Lower chambers contained 600 μL of migration medium supplemented with 5 µg/mL (VCAM-1 assays) or 1 μg/mL (ICAM-1 assays) SDF-1α to induce chemotaxis. Jurkat cells were mixed with vehicle (1% DMSO) or C4 at the indicated concentrations immediately prior to being added to the upper chamber. After a 4-hour incubation at 37° C., 5% CO2, the upper chambers were removed, and cells in the lower chamber were collected and counted on a hemocytometer. Results are expressed as the total number of cells migrated.

[6] = tested on: Jurkat (a4-) cells; test: SDF-1α mediated migration assay across ICAM-1 coated membranes; assay type: cell-based; conditions: 4-hour incubation, *p<0.05 (FIG. 3A&B)
Description: as §3, §4

T1 sequence (P20701 26-1170): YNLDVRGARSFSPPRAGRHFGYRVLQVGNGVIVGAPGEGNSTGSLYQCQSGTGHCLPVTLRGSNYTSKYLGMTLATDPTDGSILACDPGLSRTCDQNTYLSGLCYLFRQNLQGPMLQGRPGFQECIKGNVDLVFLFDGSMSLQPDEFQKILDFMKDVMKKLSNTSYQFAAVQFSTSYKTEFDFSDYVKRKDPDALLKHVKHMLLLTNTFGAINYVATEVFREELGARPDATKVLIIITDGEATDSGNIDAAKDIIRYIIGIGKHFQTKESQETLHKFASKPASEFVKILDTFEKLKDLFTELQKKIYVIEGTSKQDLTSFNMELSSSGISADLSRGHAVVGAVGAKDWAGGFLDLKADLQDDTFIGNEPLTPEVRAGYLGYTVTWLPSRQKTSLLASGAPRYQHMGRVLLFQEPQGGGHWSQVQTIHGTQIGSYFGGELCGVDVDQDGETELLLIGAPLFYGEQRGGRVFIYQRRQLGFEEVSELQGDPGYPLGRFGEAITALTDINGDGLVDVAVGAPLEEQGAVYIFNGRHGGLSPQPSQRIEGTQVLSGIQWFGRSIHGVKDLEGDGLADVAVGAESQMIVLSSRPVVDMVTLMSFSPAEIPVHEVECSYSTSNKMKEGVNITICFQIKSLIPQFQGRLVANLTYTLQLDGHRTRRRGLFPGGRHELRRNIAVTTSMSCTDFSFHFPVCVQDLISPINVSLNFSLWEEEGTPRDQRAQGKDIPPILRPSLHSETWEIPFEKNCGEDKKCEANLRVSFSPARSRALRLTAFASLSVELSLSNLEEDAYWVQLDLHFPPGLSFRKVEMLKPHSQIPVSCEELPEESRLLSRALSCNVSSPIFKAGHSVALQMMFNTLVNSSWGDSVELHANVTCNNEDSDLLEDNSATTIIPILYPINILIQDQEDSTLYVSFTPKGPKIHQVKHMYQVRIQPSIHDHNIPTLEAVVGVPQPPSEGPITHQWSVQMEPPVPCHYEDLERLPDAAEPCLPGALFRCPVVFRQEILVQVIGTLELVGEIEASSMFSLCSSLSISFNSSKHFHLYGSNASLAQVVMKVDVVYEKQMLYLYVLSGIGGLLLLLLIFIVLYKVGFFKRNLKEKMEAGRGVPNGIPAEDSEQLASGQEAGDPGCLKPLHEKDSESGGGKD
T1 sequence (P05107 23-769): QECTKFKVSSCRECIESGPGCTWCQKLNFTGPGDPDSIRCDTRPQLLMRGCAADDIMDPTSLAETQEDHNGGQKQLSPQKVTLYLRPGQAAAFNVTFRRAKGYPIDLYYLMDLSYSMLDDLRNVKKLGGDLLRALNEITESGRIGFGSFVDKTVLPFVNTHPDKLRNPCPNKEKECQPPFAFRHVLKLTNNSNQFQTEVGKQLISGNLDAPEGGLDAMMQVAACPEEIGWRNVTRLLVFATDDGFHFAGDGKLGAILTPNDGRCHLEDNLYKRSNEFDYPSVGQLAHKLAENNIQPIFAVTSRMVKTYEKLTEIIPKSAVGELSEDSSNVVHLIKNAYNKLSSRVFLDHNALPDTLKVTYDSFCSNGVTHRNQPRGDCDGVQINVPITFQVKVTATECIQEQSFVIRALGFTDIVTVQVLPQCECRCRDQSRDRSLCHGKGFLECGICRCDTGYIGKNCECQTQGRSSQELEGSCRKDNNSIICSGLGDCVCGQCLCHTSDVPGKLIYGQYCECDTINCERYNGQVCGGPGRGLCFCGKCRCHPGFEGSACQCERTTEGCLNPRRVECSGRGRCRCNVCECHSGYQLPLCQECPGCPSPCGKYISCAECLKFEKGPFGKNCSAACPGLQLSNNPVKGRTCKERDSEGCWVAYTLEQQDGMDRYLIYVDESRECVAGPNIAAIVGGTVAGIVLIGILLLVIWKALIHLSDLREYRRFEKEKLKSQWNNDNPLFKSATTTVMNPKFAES
T2 sequence (P13612 34-1032): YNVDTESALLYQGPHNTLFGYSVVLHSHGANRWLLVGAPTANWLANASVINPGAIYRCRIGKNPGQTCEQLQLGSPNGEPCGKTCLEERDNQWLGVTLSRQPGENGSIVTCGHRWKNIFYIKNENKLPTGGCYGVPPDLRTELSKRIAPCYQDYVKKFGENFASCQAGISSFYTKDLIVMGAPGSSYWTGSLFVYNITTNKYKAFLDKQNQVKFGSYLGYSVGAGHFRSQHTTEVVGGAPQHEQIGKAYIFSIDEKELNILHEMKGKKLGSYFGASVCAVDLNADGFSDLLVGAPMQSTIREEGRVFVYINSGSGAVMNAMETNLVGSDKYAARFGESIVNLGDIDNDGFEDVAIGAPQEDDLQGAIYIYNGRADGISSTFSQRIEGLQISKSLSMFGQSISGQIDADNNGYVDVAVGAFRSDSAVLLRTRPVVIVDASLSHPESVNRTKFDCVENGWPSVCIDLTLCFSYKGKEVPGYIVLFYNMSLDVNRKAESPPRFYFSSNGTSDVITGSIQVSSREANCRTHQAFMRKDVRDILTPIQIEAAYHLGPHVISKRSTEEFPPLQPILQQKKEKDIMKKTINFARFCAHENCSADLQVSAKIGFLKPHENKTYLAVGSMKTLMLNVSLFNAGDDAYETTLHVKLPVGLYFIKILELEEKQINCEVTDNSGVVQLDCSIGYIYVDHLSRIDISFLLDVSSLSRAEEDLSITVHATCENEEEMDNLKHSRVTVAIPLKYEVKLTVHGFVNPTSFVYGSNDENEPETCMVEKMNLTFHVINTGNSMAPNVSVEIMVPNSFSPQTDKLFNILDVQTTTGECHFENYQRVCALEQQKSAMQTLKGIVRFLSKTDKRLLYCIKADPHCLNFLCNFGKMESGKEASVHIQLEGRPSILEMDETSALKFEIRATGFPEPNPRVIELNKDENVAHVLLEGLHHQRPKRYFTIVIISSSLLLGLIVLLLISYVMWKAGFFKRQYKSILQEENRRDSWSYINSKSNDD
T2 sequence (P05556 21-798): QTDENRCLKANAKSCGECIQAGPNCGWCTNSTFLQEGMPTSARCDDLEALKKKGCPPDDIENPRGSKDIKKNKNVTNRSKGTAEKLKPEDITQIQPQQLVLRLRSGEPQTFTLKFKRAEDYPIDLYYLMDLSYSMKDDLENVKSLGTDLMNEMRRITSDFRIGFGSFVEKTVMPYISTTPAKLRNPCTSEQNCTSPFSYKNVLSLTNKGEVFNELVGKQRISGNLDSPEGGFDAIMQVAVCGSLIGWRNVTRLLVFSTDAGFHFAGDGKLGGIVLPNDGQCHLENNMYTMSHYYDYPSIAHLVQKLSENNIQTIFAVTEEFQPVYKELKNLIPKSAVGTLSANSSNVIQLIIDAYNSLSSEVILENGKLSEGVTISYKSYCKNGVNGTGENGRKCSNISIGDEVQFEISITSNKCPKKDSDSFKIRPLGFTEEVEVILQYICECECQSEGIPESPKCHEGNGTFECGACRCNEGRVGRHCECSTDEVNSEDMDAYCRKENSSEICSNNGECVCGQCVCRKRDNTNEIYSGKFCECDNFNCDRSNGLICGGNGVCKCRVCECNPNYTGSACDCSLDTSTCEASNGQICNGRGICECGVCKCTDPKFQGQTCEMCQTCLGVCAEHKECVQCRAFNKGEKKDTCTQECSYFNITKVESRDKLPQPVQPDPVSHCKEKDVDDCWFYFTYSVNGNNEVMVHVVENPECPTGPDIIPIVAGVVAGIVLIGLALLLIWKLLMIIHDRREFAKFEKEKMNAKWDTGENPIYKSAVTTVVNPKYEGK

Row | EC50 [1] [µM] | EC50 [2] [µM] | Structure (SMILES) | Long term tumor free survival on addition to GVAX/anti-CTLA-4 (in words) [3] | Median survival benefit on addition to GVAX/anti-CTLA-4 (in words) [3] | Killing (specific lysis) of K562 tumor target cells by NK-92 cell line ([4]; different effector to target ratios, C4 100 μM (FIG. 2)) | Killing of K562 tumor target cells by freshly isolated CD56+ NK cells ([4]; human NK cells from healthy volunteer, 4 h, with or without C4 (FIG. 1)) | SDF-1α mediated migration of Jurkat T cells across VCAM-1 coated membranes [5] | SDF-1α mediated migration of Jurkat T cells across ICAM-1 coated membranes [6]
1 | 11 | 11 | COc1ccc(CN(Cc2ccc(OC)cc2)C(=O)CCCCC(=O)N(Cc2ccc(OC)cc2)Cc2ccc(OC)cc2)cc1 [Compound C2, N^1,N^1,N^6,N^6-tetrakis(4-methoxybenzyl)adipamide] | – | – | – | – | – | –
2 | 26 | 32 | CCCC[C@@H](COC(=O)N(Cc1cccs1)Cc1cccs1)NC(=O)N[C@@H](CC(=O)OC)c1ccc2c(c1)OCO2 [Compound C1, (6S,10S)-methyl 10-(1,3-benzodioxol-5-yl)-6-butyl-3,8-dioxo-1-(2-thienyl)-2-(2-thienylmethyl)-4-oxa-2,7,9-triazadodecan-12-oate] | – | – | – | – | – | –
3 | 7 | 11 | COc1cccc(CN(Cc2cccc(OC)c2)C(=O)CCCCC(=O)N(Cc2cccc(OC)c2)Cc2cccc(OC)c2)c1 [Compound C3, N^1,N^1,N^6,N^6-tetrakis(3-methoxybenzyl)adipamide] | – | – | – | – | – | –

Row | Structure (SMILES) | EC50 [1] [µM] | EC50 [2] [µM] | Long term tumor free survival on addition to GVAX/anti-CTLA-4 (in words) [3] | Median survival benefit on addition to GVAX/anti-CTLA-4 (in words) [3] | Killing (specific lysis) of K562 tumor target cells by NK-92 cell line ([4]; different effector to target ratios, C4 100 μM (FIG. 2)) | Killing of K562 tumor target cells by freshly isolated CD56+ NK cells ([4]; human NK cells from healthy volunteer, 4 h, with or without C4 (FIG. 1)) | SDF-1α mediated migration of Jurkat T cells across VCAM-1 coated membranes [5] | SDF-1α mediated migration of Jurkat T cells across ICAM-1 coated membranes [6]
4 | O=C(OCCOCCOCCOC(=O)N(Cc1cccs1)Cc1cccs1)N(Cc1cccs1)Cc1cccs1 [Compound C4, (ethane-1,2-diylbis(oxy))bis(ethane-2,1-diyl) bis(bis(thiophen-2-ylmethyl)carbamate)] | 11 | 14 | significant increase | significant median survival benefit | enhanced | enhanced | enhancing | enhancing
